Data: patent US9066965B1, “Purified limonin glucoside for prevention and treatment of chronic diseases” (The United States of America, as represented by the …, priority 2012, dated 2015)
Entries after “also recorded” stand apart in the source; their conditions may differ.

Legend:
[1] = Rules Based Medicine human multi-analyte panel (MAP 1.6), plasma; type: in vivo; set-up: Epidermal growth factor: unit not given here
Protocol: Plasma samples prepared from blood collected in EDTA-containing tubes were stored at −80° C. until tested. The samples were thawed at room temperature, vortexed, spun at 13,000×g for 5 minutes for clarification and 100 uL aliquots were removed for MAP analysis into a master microtiter plate. Using automated pipetting, an aliquot of each sample was introduced into one of the capture microsphere multiplexes of the Human MAP 1.6. This MAP comprised of 89 antigens that included markers for oxidative stress, inflammation, immune status, T2DM, CVD, blood clotting, cancer, liver and kidney functions. All plasma samples were tested in duplicate. The mixture of sample and capture microspheres were thoroughly mixed and incubated at room temperature for 1 hour. Multiplexed cocktails of biotinylated, reporter antibodies for each multiplex were then added robotically and after thorough mixing, were incubated for an additional hour at room temperature. Multiplexes were developed using an excess of streptavidin-phycoerythrin solution which was thoroughly mixed into each multiplex and incubated for 1 hour at room temperature. The volume of each multiplexed reaction was reduced by vacuum filtration and the volume increased by dilution into matrix buffer for analysis. Analysis was performed in a Luminex 100 instrument and the resulting data stream was interpreted using proprietary data analysis software developed at Rules-Based Medicine. For each multiplex, both calibrators and controls were included on each microtiter plate. 8-point calibrators were run in the first and last column of each plate and 3-level controls were included in duplicate. Testing results were determined first for the high, medium and low controls for each multiplex to ensure proper assay performance. Unknown values for each of the analytes localized in a specific multiplex were determined using 4 and 5 parameter, weighted and non-weighted curve fitting algorithms included in the data analysis package. The intra-sample coefficient of variance (CV) for all antigens with concentrations above the lowest detectable dose (LDD) was less than 20%, and was less than 10% for more than 50% of the antigens tested.
(§1) Results are presented as means±SEM.

[2] = system: peripheral blood mononuclear cells (PBMNC); assay: Ex-vivo production of cytokines by PBMNC; type: in vivo, human
Protocol: Peripheral blood mononuclear cells (PBMNC) were isolated by using Dulbecco's phosphate buffered saline (DPBS) and suspended in Russ's-10 medium containing 10% autologous sera at concentrations of 1 million/mL. PBMNC were cultured in Costar 96-well sterile flat bottom plates coated with mouse anti-human CD3 and CD28 to stimulate T cells. Another set of wells were stimulated with LPS (final concentration 10 ng/mL) to stimulate monocytes. Cell culture supernatants were collected at 24, 48, and 72 hr after stimulation by centrifugation. Cell culture supernatants were stored at −80° C. until tested for cytokine concentrations. All cytokines were analyzed on a BioPlex instrument (BioRad Laboratories, Richmond, Calif.) with multiplex reagents kits (Millipore Corp., Danvers, Mass.).
as §1

[3] = Complete blood cell count (hematological parameters); type: in vivo, human; conditions: End LG, 500 mg/d, 56 days, n = 10, mean ± SEM
[4] = system: creatinine kinase MB (CKMB); assay: Plasma CKMB concentration (Mesoscale multiplex); type: in vivo, human; conditions: EDTA plasma; End LG, 500 mg/d, 56 days, n = 10, mean ± SEM
Protocol: CMP performed on serum samples at the chemistry laboratory of University of California Medical Center by using the Beckman Coulter DxC800. GGT and CKMB were determined in the EDTA plasma. GGT activity was determined by using Integra 400 Chemistry Analyzer, Roche Diagnostics. CKMB concentration was determined by using the Multiplex kits from Mesoscale Discovery (Gaithersburg, Md. 20877).
SAS PROC MIXED was used to fit the cross-over model (Littell R C, Milliken G A, Stroup W W, Wolfinger R D, Schabenberger O. SAS System for Mixed Models. Cay, N.C.: SAS Institute Inc.; 2006). Transformations were used when appropriate to stabilize the variances among the diets and periods. The fixed effects were order, diet, the interaction and the covariate; and the random effect was subjects within order. The test for order is a test for carry-over effect. […] Comparisons were made between the values at the end of placebo and LG treatments and using the baseline data as a covariate. Results are presented as means±SEM. Differences were considered statistically significant for P value<0.05.

[5] = End LG, 500 mg/d, 56 days, n = 10, mean ± SEM
[6] = cells stimulated with CD3/28 (each 0.75 μg/mL, 72 hr), End LG, 500 mg/d, 56 days, n = 10, mean ± SEM
[7] = cells stimulated with LPS (10 ng/mL, 24 hr), End LG, 500 mg/d, 56 days, n = 10, mean ± SEM

With `CC1(C)O[C@H]2CC(=O)OC[C@]23[C@H]2CC[C@@](C)([C@@H](O[C@@H]4O[C@H](CO)[C@@H](O)[C@H](O)[C@H]4O)c4ccoc4)[C@@]4(O[C@@H]4C(=O)O)[C@]2(C)C(=O)C[C@@H]13` [LG, limonin glucoside] the Adiponectin [1, 5] was 3.19 ± 0.70 µg/mL, the “Alpha-1 Antitrypsin” value [1, 5] was 2.19 ± 0.10 mg/mL and the “Alpha-2 Macroglobulin” value [1, 5] was 0.79 ± 0.06 mg/mL. For the same compound, the Alpha-Fetoprotein [1, 5] was 2.35 ± 0.19 ng/mL, the “Apolipoprotein A1” value [1, 5] was 0.30 ± 0.01 mg/mL and the “Apolipoprotein CIII” value [1, 5] was 111.60 ± 12.92 µg/mL. The “Apolipoprotein H” value [1, 5] was 257.10 ± 19.26 µg/mL, the Apolipoprotein a [1, 5] was 110.78 ± 57.76 µg/mL and the “Beta-2 Microglobulin” value [1, 5] was 1.46 ± 0.14 µg/mL. The “Brain-Derived Neurotrophic Factor” value [1, 5] was 2.88 ± 0.71 ng/mL, the “C Reactive Protein” value [1, 5] was 1.77 ± 0.26 µg/mL and the “CD 40” value [1, 5] was 0.76 ± 0.06 ng/mL. For the same compound, the “CD 40 Ligand” value [1, 5] was 0.74 ± 0.27 ng/mL, the “Carcinoembryonic Antigen” value [1, 5] was 1.49 ± 0.36 ng/mL and the “Creatine Kinase-MB” value [1, 5] was 0.30 ± 0.07 ng/mL. It also gave an EN-RAGE [1, 5] of 3.45 ± 0.99 ng/mL, an Eotaxin-1 [1, 5] of 71.37 ± 14.78 pg/mL and an Epidermal growth factor [1, 5] of 251.67 ± 48.22. The Epithelial derived-neutrophil-activating protein [1, 5] was 1.68 ± 0.41 ng/mL, the “Factor VII” value [1, 5] was 548.70 ± 64.71 ng/mL and the Ferritin [1, 5] was 137.76 ± 59.13 ng/mL. For the same compound, the Fibrinogen [1, 5] was 4.81 ± 0.29 mg/mL, the Fibroblast growth factor-basic [1, 5] was 102.81 ± 19.33 pg/mL and the “Glutathione S-Transferase” value [1, 5] was 0.56 ± 0.02 ng/mL. It also gave a Granulocyte colony-stimulating factor [1, 5] of 5.63 ± 1.12 pg/mL, a Growth hormone [1, 5] of 1.71 ± 0.79 ng/mL and a Haptoglobin [1, 5] of 1.26 ± 0.18 mg/mL. For the same compound, the ICAM-1 [1, 5] was 105.01 ± 13.81 ng/mL, the “Immunoglobulin A” value [1, 5] was 2.14 ± 0.54 mg/mL and the “Immunoglobulin E” value [1, 5] was 28.89 ± 6.20 ng/mL. The “Immunoglobulin M” value [1, 5] was 1.85 ± 0.23 mg/mL, the Insulin [1, 5] was 2.94 ± 0.53 μIU/mL and the Interleukin-1 beta [1, 5] was 0.50 ± 0.14 pg/mL. The Interleukin-1 receptor antagonist [1, 5] was 105.05 ± 14.03 pg/mL, the Interleukin-3 [1, 5] was 0.05 ± 0.01 ng/mL and the Interleukin-4 [1, 5] was 62.87 ± 8.35 pg/mL. The Interleukin-5 [1, 5] was 3.80 ± 0.77 pg/mL, the Interleukin-7 [1, 5] was 51.27 ± 7.39 pg/mL and the Interleukin-8 [1, 5] was 11.26 ± 1.25 pg/mL. For the same compound, the Interleukin-10 [1, 5] was 10.92 ± 2.07 pg/mL, the “Interleukin-12p 70” value [1, 5] was 59.91 ± 2.15 pg/mL and the Interleukin-13 [1, 5] was 59.52 ± 6.77 pg/mL. For the same compound, the Interleukin-15 [1, 5] was 0.45 ± 0.09 ng/mL, the Interleukin-16 [1, 5] was 404.90 ± 32.28 pg/mL and the Interleukin-18 [1, 5] was 237.45 ± 24.67 pg/mL. The Leptin [1, 5] was 15.00 ± 4.12 ng/mL, the “Macrophage inflammatory protein-1α” value [1, 5] was 106.76 ± 12.39 pg/mL and the “Macrophage inflammatory protein-1β” value [1, 5] was 183.58 ± 36.53 pg/mL. The “Matrix metalloproteinase-2” value [1, 5] was 2.20 ± 156.40 µg/mL, the “Monocyte chemotactic protein-1” value [1, 5] was 164.84 ± 16.25 pg/mL and the Monocyte derived chemokine [1, 5] was 426.10 ± 40.45 pg/mL. The Myeloperoxidase [1, 5] was 147.83 ± 22.42 ng/mL, the Myoglobin [1, 5] was 14.94 ± 2.39 ng/mL and the “Plasminogen activator inhibitor-1” value [1, 5] was 69.86 ± 15.86 ng/mL. The “Pregnancy associated plasma protein A” value [1, 5] was 0.02 ± 0.00 mIU/mL, the “Prostatic Acid Phosphatase” value [1, 5] was 0.17 ± 0.02 ng/mL and the “Serum amyloid P-component” value [1, 5] was 16.61 ± 0.94 µg/mL. The “Serum glutamic oxaloacetic transaminase” value [1, 5] was 9.67 ± 1.64 µg/mL, the “Sex hormone binding globulin” value [1, 5] was 33.29 ± 5.40 nmol/L and the “Stem Cell Factor” value [1, 5] was 351.05 ± 50.76 pg/mL. For the same compound, the “T-cell specific protein, RANTES” value [1, 5] was 16.48 ± 3.62 ng/mL, the Thrombopoietin [1, 5] was 1.40 ± 0.22 ng/mL and the “Thyroid Stimulating Hormone” value [1, 5] was 1.72 ± 0.30 μIU/mL. For the same compound, the “Thyroxine Binding Globulin” value [1, 5] was 46.51 ± 2.84 µg/mL, the Tissue factor [1, 5] was 0.45 ± 0.03 ng/mL and the “Tissue inhibitor of metalloproteinases-1” value [1, 5] was 87.97 ± 8.38 ng/mL. For the same compound, the “Tumor necrosis factor receptor-like 2” value [1, 5] was 3.83 ± 0.25 ng/mL, the “Tumor necrosis factor α” value [1, 5] was 3.58 ± 0.68 pg/mL and the “Vascular cell adhesion molecule-1” value [1, 5] was 508.80 ± 49.79 ng/mL. The “Vascular endothelial growth factor” value [1, 5] was 883.55 ± 268.15 pg/mL, the “Von Willebrand Factor” value [1, 5] was 30.03 ± 3.09 µg/mL and the “tumor necrosis factor α (p=0.085), matrix metalloproteinase-9 (p=0.118), serum amyloid P (p=0.188) with supplementation” value ([1]; not significant) was “trends for decrease”. The “Matrix metalloproteinase-2” value ([1]; second line so named (r60), End LG, 500 mg/d, 56 days, n = 10, mean ± SEM) was 0.07601 ± 0.02246 µg/mL, the “ex-vivo secretion of cytokines by stimulated T cells and monocytes” value ([2]; LG vs placebo treatment) was “did not differ; also recorded: trend for decrease” and the IL-2 [2, 6] was 58.8 ± 25.8 pg/mL. For the same compound, the IL-4 [2, 6] was 66.7 ± 12.8 pg/mL, the IL-10 [2, 6] was 779 ± 126 pg/mL and the “Interferon γ” value [2, 6] was 51700 ± 10536 pg/mL. The “TNF α” value [2, 6] was 6723 ± 970 pg/mL, the IL-1β [2, 7] was 4731 ± 1123 pg/mL and the IL-6 [2, 7] was 10926 ± 1586 pg/mL. For the same compound, the “TNF α” value [2, 7] was 1354 ± 231 pg/mL, the “concentrations of all secreted cytokines except IL-10 lower than after placebo” value ([2]; ex vivo, CD3/28 or LPS stimulated PBMNC, not significant) was 8-18% and the Specific gravity [3] was 1.02 ± 0.00. The CKMB [4] was 2.60 ± 0.50 ng/mL.
